# Experiments:
# Format in all cases: cell-based
# [1] = target: T1, CFTR G551D/ΔF508 (Homo sapiens, UniProt P13569, G551D); assay: TECC assay, primary bronchial epithelial cells, CFTR G551D/ΔF508; conditions: primary bronchial epithelial cells heterozygous G551D/ΔF508, acute mode, increase in Isc after forskolin
# T1 construct: host or cells: primary human bronchial epithelial cells from CF patients heterozygous G551D/ΔF508, no corrector pre-treatment
# Procedure: (§1) The TECC (Tranepithelial Clamp Circuit, EP-design) assay measures the functionality of the cystic fibrosis Transmembrane Conductance regulator (CFTR) by measuring the short circuit current (Isc) generated over the basolateral and apical membrane of lung epithelial cells. In TECC the transepithelial potential PD and transepithelial resistance (Rt) are measured in an open circuit and transformed to Isc using Ohm's law. 24 Wells can be measured simultaneously allowing a higher throughput compared to Ussing chambers.
# (§2) For this purpose, bronchial epithelial cells isolated from CF patients homozygous for the CFTR ΔF508 mutation (hAEC-CF, Epithelix) are plated on type IV collagen-coated Transwell® supports (Costar). Human airway epithelia are generated by provision of an air-liquid interface for 21 days to form well-differentiated polarized cultures that resemble in vivo pseudo-stratified ciliated epithelium (Fulcher, M. L., Gabriel, S., Burns, K. A., Yankaskas, J. R., Randell, S. H., 2005. Well-differentiated human airway epithelial cell cultures. Methods Mol. Med. 107, 183-206). In the case of the homozygous ΔF508 CFTR samples, the differentiated cells are treated with 3 μM VX809 (2626 South Loop West, Suite 225, Houston, Tex. 77054 USA, Cat n# S1565) to allow sufficient expression of properly folded CFTR protein on the membrane (48 hours basolateral treatment and 24 hours apical treatment), prior to electrophysiological recordings. For heterozygous G551D/ΔF508, differentiated cells are used as such for the recordings.
# (§3) Information on the compounds can be retrieved on the homozygous ΔF508 CFTR samples looking at increased CFTR activity when compounds are added in an acute mode or in a chronic mode. On G551D/ΔF508 CFTR heterozygous samples compounds are added in an acute mode to the differentiated cells.
# (§4) For the acute mode, for electrophysiological recording, the human airway epithelia are mounted in the TECC heating plate for electrophysiological measurement and kept at 37° C. The epithelia are bathed in a NaCl-Ringer solution (120 mM NaCl, 25 mM NaHCO3, 1.2 mM CaCl2, 1.2 mM MgCl2, 0.8 mM KH2PO4, 0.8 mM K2HPO4, pH 7.4, 5 mM glucose) on both the basolateral and apical sides. Apical amiloride is used to inhibit the endogenous ENaC currents while forkolin is applied on both apical and basolateral side to stimulate CFTR. After forskolin triggering, compounds are added on both sides to test their potential for increasing CFTR gating. Measurements are done during a 20 minute timeframe with recordings every 2 minutes. The increase in Isc is used as a measure for the increased CFTR activity, EC50 values can be generated by measuring impact of different concentrations of compound on Isc on primary cells, for this purpose each transwell is treated with a different compound concentration. Inh-172, an inhibitor specific for CFTR, is used to test the specificity of the tested compounds.
# When subjected to this protocol, the following values were obtained. The difference between ΔIsc measured as DMSO (baseline), and the ΔIsc measured with the compound tested.
# [2] = target: T2, CFTR-R117H (Homo sapiens, UniProt P13569, R117H); assay: YFP-halide influx assay for the CFTR-R117H
# T2 construct: expressed in transfected cells
# T2 sequence (P13569 whole entry R117H): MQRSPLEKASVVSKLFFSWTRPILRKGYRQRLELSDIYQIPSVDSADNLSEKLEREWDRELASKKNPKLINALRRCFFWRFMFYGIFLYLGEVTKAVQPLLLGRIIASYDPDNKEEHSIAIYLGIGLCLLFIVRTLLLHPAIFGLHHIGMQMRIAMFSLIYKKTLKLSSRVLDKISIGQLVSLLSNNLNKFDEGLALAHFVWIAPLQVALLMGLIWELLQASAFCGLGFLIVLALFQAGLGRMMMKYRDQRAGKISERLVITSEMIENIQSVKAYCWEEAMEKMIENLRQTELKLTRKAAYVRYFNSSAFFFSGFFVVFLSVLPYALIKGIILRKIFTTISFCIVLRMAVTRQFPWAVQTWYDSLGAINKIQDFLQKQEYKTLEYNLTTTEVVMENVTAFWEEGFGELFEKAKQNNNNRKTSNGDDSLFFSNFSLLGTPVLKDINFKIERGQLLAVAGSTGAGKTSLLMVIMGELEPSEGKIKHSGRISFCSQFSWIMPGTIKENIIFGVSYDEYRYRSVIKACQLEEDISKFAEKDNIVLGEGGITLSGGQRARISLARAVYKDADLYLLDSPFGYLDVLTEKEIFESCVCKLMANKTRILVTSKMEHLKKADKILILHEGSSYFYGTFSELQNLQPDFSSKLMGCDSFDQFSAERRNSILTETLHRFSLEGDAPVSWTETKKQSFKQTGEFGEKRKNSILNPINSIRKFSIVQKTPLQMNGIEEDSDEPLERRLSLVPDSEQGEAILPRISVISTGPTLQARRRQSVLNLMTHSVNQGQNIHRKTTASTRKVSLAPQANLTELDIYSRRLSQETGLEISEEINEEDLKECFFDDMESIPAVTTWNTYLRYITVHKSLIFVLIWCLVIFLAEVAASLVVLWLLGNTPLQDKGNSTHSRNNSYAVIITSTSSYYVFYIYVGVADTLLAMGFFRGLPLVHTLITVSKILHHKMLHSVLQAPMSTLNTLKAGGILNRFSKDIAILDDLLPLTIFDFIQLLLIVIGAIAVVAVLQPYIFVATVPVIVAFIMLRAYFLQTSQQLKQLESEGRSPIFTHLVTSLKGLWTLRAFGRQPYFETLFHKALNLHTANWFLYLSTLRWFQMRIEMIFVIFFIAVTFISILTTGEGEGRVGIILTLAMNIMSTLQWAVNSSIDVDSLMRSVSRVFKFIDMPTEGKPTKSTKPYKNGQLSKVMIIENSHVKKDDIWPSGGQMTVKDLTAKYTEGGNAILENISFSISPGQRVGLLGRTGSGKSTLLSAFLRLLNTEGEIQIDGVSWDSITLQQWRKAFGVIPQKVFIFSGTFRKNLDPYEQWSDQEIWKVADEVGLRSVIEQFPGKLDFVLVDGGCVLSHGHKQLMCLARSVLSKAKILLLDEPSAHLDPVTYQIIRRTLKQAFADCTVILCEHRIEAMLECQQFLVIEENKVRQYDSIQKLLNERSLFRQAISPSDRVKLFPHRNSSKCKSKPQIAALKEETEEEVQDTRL
# Method in brief: (§5)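 HEK293 cells reverse-transfected with a CFTR mutant and YFP H148Q/I152L/F47L halide sensor, expressed 24 h at 37° C. Fluorescence quenching followed for 7 s after I⁻ injection; activity expressed as 1−F/F0, with EC50 fitted from 1−F/F0 versus compound concentration.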
# [3] = target: T3, CFTR ΔF508 mutant (Homo sapiens, UniProt P13569, DEL508-508); assay: YFP-halide influx assay for the CFTR-ΔF508 mutation (CFBE41o- cells); conditions: forskolin 10.67 μM; for EC50: from (1−F/F0) vs concentration plot
# T3 construct: expressed in transfected cells; host or cells: CFBE41o- cells, adenoviral transduction
# T3 sequence (P13569 with tags, fused parts or gaps DEL508-508): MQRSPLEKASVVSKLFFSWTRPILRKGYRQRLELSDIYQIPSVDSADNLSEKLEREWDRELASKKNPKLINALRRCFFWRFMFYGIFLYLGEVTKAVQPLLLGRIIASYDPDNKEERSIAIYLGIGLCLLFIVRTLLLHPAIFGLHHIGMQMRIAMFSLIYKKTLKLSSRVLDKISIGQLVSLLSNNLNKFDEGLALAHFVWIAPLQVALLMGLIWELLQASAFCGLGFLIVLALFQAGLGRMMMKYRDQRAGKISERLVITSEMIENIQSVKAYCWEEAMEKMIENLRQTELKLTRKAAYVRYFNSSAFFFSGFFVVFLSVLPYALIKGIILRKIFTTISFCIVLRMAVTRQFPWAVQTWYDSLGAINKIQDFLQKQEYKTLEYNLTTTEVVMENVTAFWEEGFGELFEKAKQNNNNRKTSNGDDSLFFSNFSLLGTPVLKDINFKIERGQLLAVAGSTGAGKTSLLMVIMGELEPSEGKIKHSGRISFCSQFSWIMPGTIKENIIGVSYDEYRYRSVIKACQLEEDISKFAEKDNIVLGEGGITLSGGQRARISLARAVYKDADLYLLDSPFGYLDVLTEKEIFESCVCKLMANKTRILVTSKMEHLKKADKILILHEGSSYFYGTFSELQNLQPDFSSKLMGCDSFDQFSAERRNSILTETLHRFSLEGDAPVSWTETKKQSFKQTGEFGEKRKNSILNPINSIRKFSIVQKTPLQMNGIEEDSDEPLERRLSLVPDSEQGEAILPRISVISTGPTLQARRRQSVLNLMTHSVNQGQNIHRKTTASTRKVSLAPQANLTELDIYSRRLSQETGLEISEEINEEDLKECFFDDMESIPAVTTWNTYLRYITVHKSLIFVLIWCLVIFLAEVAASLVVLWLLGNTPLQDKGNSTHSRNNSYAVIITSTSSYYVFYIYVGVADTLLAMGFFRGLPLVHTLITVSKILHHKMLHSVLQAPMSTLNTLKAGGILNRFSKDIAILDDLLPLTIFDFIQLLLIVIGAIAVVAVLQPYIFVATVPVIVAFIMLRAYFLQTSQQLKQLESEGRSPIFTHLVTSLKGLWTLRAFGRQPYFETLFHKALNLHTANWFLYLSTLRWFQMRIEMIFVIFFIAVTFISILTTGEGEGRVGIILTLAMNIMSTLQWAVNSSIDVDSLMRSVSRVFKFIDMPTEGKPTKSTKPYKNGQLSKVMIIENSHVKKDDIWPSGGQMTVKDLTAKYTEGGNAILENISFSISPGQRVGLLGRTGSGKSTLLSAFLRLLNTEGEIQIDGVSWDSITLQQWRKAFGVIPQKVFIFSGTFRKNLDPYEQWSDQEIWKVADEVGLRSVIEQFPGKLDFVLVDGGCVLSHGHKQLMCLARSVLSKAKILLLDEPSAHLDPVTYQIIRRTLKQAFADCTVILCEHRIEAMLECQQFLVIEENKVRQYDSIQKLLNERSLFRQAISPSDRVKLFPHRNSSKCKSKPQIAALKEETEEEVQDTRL
# Method in brief: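 EC50 derived from plotting 1−F/F0 (fluorescence 36 s after iodide injection over pre-injection value) against compound concentration. Cells: CFBE41o- transduced with ΔF508-CFTR and YFP quench reporter, corrected 24 h at 27° C or by a CFTR modulator at 37° C.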
# [4] = target: T4, CFTR-G1349D (Homo sapiens, UniProt P13569, G1349D); assay: YFP-halide influx assay for the CFTR-G1349D
# T4 construct: expressed in transfected cells
# T4 sequence (P13569 whole entry G1349D): as the sequence (P13569 whole entry R117H) above, with H117R, G1349D counted along it
# Method in brief: as §5
# [5] = target: T5, CFTR G551D mutant (Homo sapiens, UniProt P13569, G551D); assay: YFP-halide influx assay for the CFTR-G551D mutation (HEK293 cells); conditions: forskolin 10.67 μM
# T5 construct: expressed in transfected cells; host or cells: HEK293 cells, reverse transfection with plasmids
# T5 sequence (P13569 whole entry G551D): as the sequence (P13569 whole entry R117H) above, with H117R, G551D counted along it
# Method in brief: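 Channel opening read as I⁻-driven quenching of a YFP H148Q/I152L/F47L reporter over 7 s post-injection, expressed as 1−F/F0 and fitted against concentration for EC50. Cells were HEK293 co-transfected at seeding with G551D CFTR plus reporter, then grown 24 h at 37 °C, 5% CO2.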
# [6] = target: T6, CFTR ΔF508 (Homo sapiens, UniProt P13569, DEL508-508); assay: TECC assay, primary bronchial epithelial cells, CFTR ΔF508; conditions: primary bronchial epithelial cells of CF patients homozygous for CFTR ΔF508, treated with 3 μM VX809, increase in Isc after forskolin
# T6 construct: host or cells: primary human bronchial epithelial cells from CF patients homozygous for ΔF508, pre-treated with VX809
# T6 sequence (P13569 with tags, fused parts or gaps DEL508-508): as the sequence (P13569 with tags, fused parts or gaps DEL508-508) above
# Procedure: as §1, §2, §3, §4
# For the chronic mode, the differentiated cells are treated with 3 μM VX809 (2626 South Loop West, Suite 225, Houston, Tex. 77054 USA, Cat n# S1565) and potentiator compounds at different concentrations (48 hours basolateral treatment and 24 hours apical treatment), prior to electrophysiological recordings. For electrophysiological recording, the human airway epithelia are mounted in the TECC heating plate for electrophysiological measurement and kept at 37° C. The epithelia are bathed in a NaCl-Ringer solution (120 mM NaCl, 25 mM NaHCO3, 1.2 mM CaCl2, 1.2 mM MgCl2, 0.8 mM KH2PO4, 0.8 mM K2HPO4, pH 7.4, 5 mM glucose) on both the basolateral and apical sides. Apical amiloride is used to inhibit the endogenous ENaC currents while forkolin is applied on both apical and basolateral side to stimulate CFTR. Measurements are done during a 20 minute timeframe with recordings every 2 minutes. […]
# [7] = target: T7, CFTR-G178R (Homo sapiens, UniProt P13569, G178R); assay: YFP-halide influx assay for the CFTR-G178R
# T7 construct: expressed in transfected cells
# T7 sequence (P13569 whole entry G178R): as the sequence (P13569 whole entry R117H) above, with H117R, G178R counted along it
# Method in brief: as §5
# [8] = target: T8, CFTR-S549N (Homo sapiens, UniProt P13569, S549N); assay: YFP-halide influx assay for the CFTR-S549N; design: % Activation: concentration or dose not given beside the values
# T8 construct: expressed in transfected cells
# T8 sequence (P13569 whole entry S549N): as the sequence (P13569 whole entry R117H) above, with H117R, S549N counted along it
# Method in brief: as §5
# T1 sequence (P13569 whole entry F508del/G551D): as the sequence (P13569 with tags, fused parts or gaps DEL508-508) above, with G550D counted along it
EC50 [1] [nM],% Activation [2] [%],EC50 [2] [nM],% Activation [3] [%],EC50 [3] [nM],% Activation [4] [%],EC50 [4] [nM],% Activation [5] [%],EC50 [5] [nM],EC50 [6] [nM],% Activation [7] [%],EC50 [7] [nM],% Activation [8] [%],EC50 [8] [nM],SMILES
7720,82.7,479,103.5,69.1,63.0,549,73.5,723,,,,,,"Nc1cc(S(=O)(=O)c2ccc(OC(F)(F)F)cc2)cnc1C(=O)NCC1CCCO1 (stereo not drawn) [Compound 7, 3-amino-N-(tetrahydrofuran-2-ylmethyl)-5-{[4-(trifluoromethoxy)phenyl]sulfonyl}pyridine-2-carboxamide]"
,,,103.0,61.6,,,86.0,1110,91.3,,,,,"CCOCCOCC(O)CNC(=O)c1ncc(S(=O)(=O)c2ccc(OC(F)(F)F)cc2)cc1N (stereo not drawn) [Compound 38, 3-amino-N-[3-(2-ethoxyethoxy)-2-hydroxypropyl]-5-{[4-(trifluoromethoxy)phenyl]sulfonyl}pyridine-2-carboxamide]"
461,,,96.6,8,,,48.8,458,38.3,,,,,"Nc1cc(S(=O)(=O)c2ccc(OC(F)(F)F)cc2)cnc1C(=O)NCCC(O)C(F)(F)F (stereo not drawn) [Compound 52, 3-amino-N-(4,4,4-trifluoro-3-hydroxybutyl)-5-{[4-(trifluoromethoxy)phenyl]sulfonyl}pyridine-2-carboxamide]"
,,,111.0,34.3,,,84.6,1630,50.4,,,,,"CC1(C)CN(C(=O)c2ncc(S(=O)(=O)c3ccc(OC(F)(F)F)cc3)cc2N)C1 [Compound 59, (3-amino-5-{[4-(trifluoromethoxy)phenyl]sulfonyl}pyridin-2-yl)(3,3-dimethylazetidin-1-yl)methanone]"
,,,108.0,19.1,,,70.2,1260,112,,,,,"COCC(O)CNC(=O)c1ncc(S(=O)(=O)c2ccc(OC(F)(F)F)cc2F)cc1N (stereo not drawn) [Compound 71, 3-amino-5-{[2-fluoro-4-(trifluoromethoxy)phenyl]sulfonyl}-N-(2-hydroxy-3-methoxypropyl)pyridine-2-carboxamide]"
9.5,103,3.83,110.5,1,90.89,2.73,51.7,28.9,,77.69,3.29,104.8,3.29,"Nc1cc(S(=O)(=O)c2ccccc2OC(F)(F)F)cnc1C(=O)N1CC(O)(C(F)(F)F)C1 [Compound 85, (3-amino-5-{[2-(trifluoromethoxy)phenyl]sulfonyl}pyridin-2-yl)[3-hydroxy-3-(trifluoromethyl)azetidin-1-yl]methanone]"
144,94.77,97.7,118.5,7.2,91.24,30.6,79.0,210,,104.9,145,98.96,131,"CC(C)OCC(O)CNC(=O)c1ncc(S(=O)(=O)c2ccc(C(F)(F)F)cc2)cc1N (stereo not drawn) [Compound 92, 3-amino-N-[2-hydroxy-3-(propan-2-yloxy)propyl]-5-{[4-(trifluoromethyl)phenyl]sulfonyl}pyridine-2-carboxamide]"
487,88.62,138,104.0,5.7,71.97,75.4,54.2,300,,80.8,226,65.61,86.4,"Nc1cc(S(=O)(=O)N2CCC(C(F)(F)F)CC2)cnc1C(=O)NCC(O)C(F)(F)F (stereo not drawn) [Compound 95, 3-amino-N-(3,3,3-trifluoro-2-hydroxypropyl)-5-{[4-(trifluoromethyl)piperidin-1-yl]sulfonyl}pyridine-2-carboxamide]"
358,,,109.5,7.6,,,91.7,796,,,,,,"COC[C@H](O)CNC(=O)c1ncc(S(=O)(=O)c2ccc(C(F)(F)F)cc2F)cc1N [Compound 99, 3-amino-5-{[2-fluoro-4-(trifluoromethyl)phenyl]sulfonyl}-N-[(2R)-2-hydroxy-3-methoxypropyl]pyridine-2-carboxamide]"
62.2,,,102.0,2.5,,,99.7,215,,,,,,"CC(C)OC[C@H](O)CNC(=O)c1ncc(S(=O)(=O)c2ccc(C(F)(F)F)cc2)cc1N [Compound 252, 3-amino-N-[(2R)-2-hydroxy-3-(propan-2-yloxy)propyl]-5-{[4-(trifluoromethyl)phenyl]sulfonyl}pyridine-2-carboxamide]"
1440,,,102.6,6,,,51.2,1070,,,,,,"Nc1cc(S(=O)(=O)c2ccccc2)cnc1C(=O)NC[C@@H](O)C(F)(F)F [Compound 253, 3-amino-5-(phenylsulfonyl)-N-[(2R)-3,3,3-trifluoro-2-hydroxypropyl]pyridine-2-carboxamide]"
